{"source": "patent US20070219180A1", "about": "“Muscle Relaxtion Accelerator and Therapeutic Agent for Muscular Tissue Diseases Such as Muscle Relaxation Failure” (priority 2004, published 2007)", "key": {"white rabbits": {"system": "white rabbits", "experiment": "Experiment 8: inhibition of clofilium-induced torsades de pointes", "assay_type": "in vivo, rabbit", "experimental": "Inhibition of clofilium-induced torsades de pointes by the compound In this experiment, four white rabbits (weight: 2.8-3.2 kg) were used. Each rabbit was intravenously anesthetized with 5 mg/kg methohexital sodium. Injection catheters for the compound and test drug were inserted into the right external jugular veins of the rabbits, and microchip catheters (SPC-320, Millar) for blood pressure measurement were inserted via the right common arteries, under artificial respiration by endotracheal intubation.\nThe compound solution was prepared by dissolving 100 mg of the compound in 1 ml of dimethylsulfoxide (DMSO), and stored at 4° C.\nA 2-lead electrocardiogram and blood pressure of each rabbit were recorded simultaneously on a personal computer via an A/D converter. In this experiment, a sequence of more than 6 polymorphic ventricular tachycardia configurations on the electrocardiogram was defined as torsades de pointes. The number of onsets of torsades de pointes was recorded by electrocardiogram for 30 minutes after administration of clofilium. Methoxamine (an α-stimulant) was used to rapidly induce torsades de pointes. The compound, methoxyamine and clofilium were administered in physiological saline. […]"}, "male Wistar rats": {"system": "male Wistar rats", "experiment": "Experiment 12: effect on myocardial microcirculation (microsphere myocardial tissue blood flow rate)", "assay_type": "in vivo, rat", "experimental": "The effects of the compound on myocardial microcirculation were examined. In this experiment, the 1-hydrochloride of the compound, 4-[3-(4-benzylpiperidin-1-yl)propionyl]-7-methoxy-2,3,4,5-tetrahydro-1,4-benzothiazepine 1-hydrochloride (hereinafter called the compound) was used as the 1,4-benzothiazepine derivative or pharmaceutically acceptable salt thereof.\nFour 8-week old male Wistar rats weighing 300-310 g were used in the study. The rats were anesthetized with 1,000 mg/kg of urethane and 80 mg/kg of α-chloralose by subperitoneal injection under artificial respiration (Harvard) using endotracheal intubation. In this experiment, 100 mg of the compound was dissolved in 1 ml of dimethylsulfoxide (DMSO) and the resulting DMSO solution of the compound was stored at 4° C. Norepinephrine solution was prepared by dissolving 1 mg of norepinephrine in 41 μl of distilled water, at an infusion speed of 30 μg/kg/min.\nFirstly, continuous infusion catheters of calcium chloride solution or norepinephrine solution containing calcium chloride were inserted into the right external jugular veins of the rats, and 2F polyethylene catheters for microspheres were inserted into the left ventricles via the right common arteries. In addition, test drug infusion catheters were inserted into the right femoral veins.\nA 1-lead electrocardiogram and the left ventricular pressure were recorded simultaneously on a personal computer via an A/D converter. In the preparation step, blood pressure, pulse, and electrocardiogram of the rats were monitored for 15 minutes and allowed to stabilize, and then 5% dextrose solution containing calcium chloride (at a concentration based on the weight of the rat) was infused into the right external jugular vein for 20 minutes at 16.6 μl/min (12 mg/kg/min of calcium chloride). Next, norepinephrine solution containing calcium chloride without changes in dosage regimen was immediately injected at a rate of 30 μg/kg/min via the right external jugular vein. After the start of administration, calcium chloride and norepinephrine were then continuously injected in the form of a norepinephrine solution containing calcium chloride. With continuous injection of calcium chloride via the right external jugular vein, 5% dextrose solution containing 0.1% DMSO solution was administered via the right femoral vein to Control A rat weighing 310 g (to which the compound was not administered) and to Control B rat weighing 300 g (to which the compound was not administered), 5 minutes before commencement of injection (intravenous injection) of the norepinephrine solution containing calcium chloride. In addition, with continuous injection of calcium chloride via the right external jugular vein, a 5% dextrose solution of the compound was continuously administered to Test 15 rat weighing 300 g and Test 16 rat weighing 300 g for 3 minutes at a rate of 0.33 mg/kg/min and subsequently for 25 minutes at a rate of 0.01 mg/kg/min, 5 minutes before commencement of injection (intravenous injection) of the norepinephrine solution containing calcium chloride via the right external jugular vein. The infusion rate was 0.5 ml/3 minutes for the first 3 minutes and then 0.05 ml/3 minutes.\nMyocardial tissue blood flow rate was measured twice using microspheres, 5 minutes before the start of calcium chloride administration and 20 minutes after the start of administration of norepinephrine solution containing calcium chloride. […]"}}, "note": "“And” between values parts separate entries of the source, which are not always exact repeats. Equal values may be shown once.", "data": [{"smiles": "COc1ccc2c(c1)CN(C(=O)CCN1CCC(Cc3ccccc3)CC1)CCS2", "note": "[the compound, 4-[3-(4-benzylpiperidine-1-yl)propionyl]-7-methoxy-2,3,4,5-tetrahydro-1,4-benzothiazepine]", "values": [{"measurement": "Onset of torsades de pointes (electrocardiogram)", "setting": "white rabbits; clofilium 50 μg/kg/min + the compound 0.2 mg/kg/min i.v., monitored 30 minutes", "value": "completely prevented"}, {"measurement": "Incidence of torsades de pointes", "setting": "white rabbits; number of onsets in 30 minutes after start of clofilium 50 μg/kg/min under methoxamine 15 μg/kg/min, the compound 0.2 mg/kg/min i.v. for 30 min", "value": 0}, {"measurement": "Myocardial tissue blood flow rate", "setting": "male Wistar rats; 5 minutes before the start of CaCl2 administration (baseline), compound later 0.33 mg/kg/min 3 min then 0.01 mg/kg/min 25 min", "value": "4.6 mL/min/g and 4.3 mL/min/g"}, {"measurement": "Myocardial tissue blood flow rate, ratio to 5 minutes before CaCl2", "setting": "male Wistar rats; 5 minutes before the start of CaCl2 administration (defined as 100%)", "value": 100, "unit": "%"}, {"measurement": "Decrease in myocardial tissue blood flow under diastolic dysfunction with administration of the compound", "setting": "male Wistar rats; 20 minutes after the start of norepinephrine containing CaCl2", "value": "≤ 30", "unit": "%"}, {"measurement": "Myocardial tissue blood flow rate, ratio to 5 minutes before CaCl2", "setting": "male Wistar rats; 20 minutes after the start of norepinephrine solution containing CaCl2, compound 0.33 mg/kg/min 3 min then 0.01 mg/kg/min 25 min", "value": "70% and 98%"}, {"measurement": "Myocardial tissue blood flow rate", "setting": "male Wistar rats; 20 minutes after the start of norepinephrine solution containing CaCl2, compound 0.33 mg/kg/min 3 min then 0.01 mg/kg/min 25 min, from 5 min before norepinephrine", "value": "3.2 mL/min/g and 4.2 mL/min/g"}]}]}
